Measured values reported in US11331299B2, “Medicinal use of serrulatane diterpenes” (The University of Sydney, priority 2016, dated 2022).
Where two headings read alike, the source gives them in different places.

Test system: 280 human cancer cell lines
Test: OncoPanel cell proliferation assay (10-day)
Assay type: cell-based
Details: Homo sapiens; for GI50: read-out: Cell Count GI50; for IC50: read-out: Cell Count IC50; for EC50: read-out: Cell Count EC50
[1] = KHOS-240S, Soft Tissue - Osteosarcoma
[2] = ME-180, ME-180, Female GU - Ovary
[3] = MG-63, MG-63, Soft Tissue - Osteosarcoma
[4] = MHH-PREB-1, MHH-PREB-1, Leukemia
[5] = MIA PaCa-2, Mia PaCa-2, Pancreas
[6] = MS751, MS751, Female GU - Ovary
[7] = Malme-3M, MALME3M, Skin (Melanoma)
[8] = NCI-H292, NCI-H292, Lung - NSCLC
[9] = NCI-H441, NCIH441, Lung - NSCLC
[10] = NCI-H460, NCI-H460, Lung - NSCLC
[11] = NCI-H520, NCI-H520, Lung - NSCLC
[12] = NCI-H596, NCI-H596, Lung - NSCLC
[13] = NCI-H661, NCI-H661, Lung - NSCLC
[14] = NTERA-2-cl-D1, NTERA-2 cl.D1, Testis
[15] = OVCAR-3, OVCAR3, Female GU - Ovary
[16] = RPMI-7951, RPMI-7951, Skin (Melanoma)
[17] = SAOS-2, SaOS2, Soft Tissue - Osteosarcoma

## CC(C)=CCC[C@H](CO)[C@@H]1CC[C@@H](C)c2c1cc(C)c(O)c2O [Compound 1, 7,8,18-trihydroxyserrulat-14-ene]
[1]
  GI50: 950 nM
  IC50: 950 nM
KLE, Female GU - Uterus
  EC50: 3700 nM
  GI50: 3560 nM
  IC50: 3820 nM
KPL-1, KPL-1, Breast
  EC50: 810 nM
  GI50: 810 nM
  IC50: 810 nM
KU812, KU812, Leukemia
  EC50: 2810 nM
  GI50: 2570 nM
  IC50: 2810 nM
L-428, L-428, Lymphoma
  EC50: 1080 nM
  GI50: 1080 nM
  IC50: 1090 nM
LNCaP, Prostate
  EC50: 3900 nM
  GI50: 3470 nM
  IC50: 3900 nM
LS-123, LS123, Colon
  EC50: 1130 nM
  GI50: 1030 nM
  IC50: 1160 nM
LS-411N, LS411N, Colon
  EC50: 8720 nM
  GI50: 8510 nM
  IC50: 8720 nM
LS-1034, LS1034, Colon
  EC50: 1870 nM
  GI50: 1830 nM
  IC50: 1870 nM
M059J, CNS - Glioma
  EC50: 3090 nM
  GI50: 3020 nM
  IC50: 3090 nM
MC116, MC116, Lymphoma
  EC50: 3790 nM
  GI50: 3780 nM
  IC50: 3790 nM
MC-IXC, CNS - Neuroblastoma
  EC50: 4010 nM
  GI50: 4000 nM
  IC50: 4010 nM
MCF7, MCF7, Breast
  EC50: 1370 nM
  GI50: 1350 nM
  IC50: 1370 nM
MDA-MB-231, MDA MB 231, Breast
  EC50: 1470 nM
  GI50: 1470 nM
  IC50: 1480 nM
MDA-MB-436, MDA-MB-436, Breast
  EC50: 2680 nM
  GI50: 2670 nM
  IC50: 2690 nM
MDA-MB-453, MDA MB 453, Breast
  EC50: 780 nM
  GI50: 770 nM
  IC50: 780 nM
MDA-MB-468, MDA MB 468, Breast
  EC50: 2750 nM
  GI50: 2740 nM
  IC50: 2760 nM
[2]
  EC50: 2250 nM
  GI50: 2210 nM
  IC50: 2260 nM
MEG-01, MEG01, Leukemia
  EC50: 7350 nM
  GI50: 7220 nM
  IC50: 7350 nM
MES-SA, Soft Tissue - Sarcoma
  EC50: 1230 nM
  GI50: 1220 nM
  IC50: 1230 nM
[3]
  EC50: 9240 nM
  GI50: 9160 nM
  IC50: 9240 nM
[4]
  EC50: 6170 nM
  GI50: 6170 nM
  IC50: 6170 nM
[5]
  EC50: 2970 nM
  GI50: 2970 nM
  IC50: 2970 nM
MOLT-3, MOLT-3, Leukemia
  EC50: 2130 nM
  GI50: 2110 nM
  IC50: 2130 nM
MOLT-16, MOLT-16, Leukemia
  EC50: 1840 nM
  GI50: 1840 nM
  IC50: 1840 nM
[6]
  EC50: 2230 nM
  GI50: 2210 nM
  IC50: 2230 nM
MT-3, Colon
  EC50: 3670 nM
  GI50: 3660 nM
  IC50: 3670 nM
MV4-11, MV-4-11, Leukemia
  EC50: 3580 nM
  GI50: 3570 nM
  IC50: 3580 nM
MX1, Leukemia
  EC50: 1290 nM
  GI50: 1290 nM
  IC50: 1290 nM
[7]
  EC50: 1790 nM
  GI50: 1660 nM
  IC50: 1790 nM
MeWo, Skin (Melanoma)
  EC50: 1320 nM
  GI50: 1310 nM
  IC50: 1320 nM
NALM-6, NALM-6, Leukemia
  EC50: 1810 nM
  GI50: 1810 nM
  IC50: 1810 nM
NAMALWA, Lymphoma
  EC50: 3390 nM
  GI50: 3390 nM
  IC50: 3390 nM
NCI-H69, NCI-H69, Lung - SCLC
  EC50: 6300 nM
  GI50: 5840 nM
  IC50: 6440 nM
[8]
  EC50: 3200 nM
  GI50: 3180 nM
  IC50: 3200 nM
NCI-H295R, Endocrine - Adrenal gland
  GI50: 13500 nM
[9]
  EC50: 12100 nM
  GI50: 11700 nM
  IC50: 12100 nM
NCI-H446, NCIH446, Lung - SCLC
  EC50: 10300 nM
  GI50: 10000 nM
  IC50: 10300 nM
[10]
  EC50: 2340 nM
  GI50: 2330 nM
  IC50: 2340 nM
NCI-H508, NCI-H508, Colon
  EC50: 14400 nM
  GI50: 14300 nM
  IC50: 14400 nM
[11]
  EC50: 2430 nM
  GI50: 2410 nM
  IC50: 2430 nM
[12]
  EC50: 8780 nM
  GI50: 8410 nM
  IC50: 8780 nM
[13]
  EC50: 2280 nM
  GI50: 2280 nM
  IC50: 2290 nM
NCI-H747, NCI-H747, Colon
  EC50: 3090 nM
  GI50: 3100 nM
  IC50: 3110 nM
[14]
  EC50: 2250 nM
  GI50: 2200 nM
  IC50: 2250 nM
OCUG-1, OCUG-1, Liver
  EC50: 4300 nM
  GI50: 4290 nM
  IC50: 4300 nM
OE19, OE19, Head and Neck
  EC50: 3230 nM
  GI50: 3210 nM
  IC50: 3230 nM
OE21, OE21, Head and Neck
  EC50: 3680 nM
  GI50: 3670 nM
  IC50: 3680 nM
[15]
  EC50: 1530 nM
  GI50: 1520 nM
  IC50: 1570 nM
PA-1, Female GU - Ovary
  EC50: 4210 nM
  GI50: 4210 nM
  IC50: 4210 nM
PANC-1, PANC-1, Pancreas
  EC50: 2870 nM
  GI50: 2830 nM
  IC50: 2870 nM
PC-3, Prostate
  EC50: 3880 nM
  GI50: 3860 nM
  IC50: 3880 nM
PFSK-1, PFSK-1, CNS - Glioma
  EC50: 4320 nM
  GI50: 4310 nM
  IC50: 4330 nM
PSN1, PSN-1, Pancreas
  EC50: 2320 nM
  GI50: 2320 nM
  IC50: 2320 nM
RD, Soft Tissue - Sarcoma
  EC50: 810 nM
  GI50: 810 nM
  IC50: 810 nM
RKO, Colon
  EC50: 1690 nM
  GI50: 1690 nM
  IC50: 1690 nM
RKOE6, RKOE6, Colon
  EC50: 1720 nM
  GI50: 1720 nM
  IC50: 1720 nM
RPMI-6666, RPMI 6666, Lymphoma
  EC50: 3530 nM
  GI50: 3440 nM
  IC50: 3530 nM
[16]
  EC50: 700 nM
  GI50: 700 nM
  IC50: 700 nM
RPMI-8226, RPMI 8226, Myeloma
  EC50: 680 nM
  GI50: 670 nM
  IC50: 680 nM
RS4-11, RS4, 11, Leukemia
  EC50: 1770 nM
  GI50: 1710 nM
  IC50: 1770 nM
Raji, Lymphoma
  EC50: 4600 nM
  GI50: 4590 nM
  IC50: 4600 nM
Ramos, Ramos (RA 1), Lymphoma
  EC50: 2960 nM
  GI50: 2960 nM
  IC50: 2960 nM
[17]
  EC50: 1980 nM
  GI50: 2040 nM
  IC50: 2100 nM
SCC-4, SCC-4, Head and Neck
  EC50: 4660 nM
  GI50: 4630 nM
  IC50: 4720 nM
SCC-9, SCC-9, Head and Neck
  EC50: 3440 nM
  GI50: 3440 nM
  IC50: 3450 nM
SCC-25, SCC-25, Head and Neck
  EC50: 3940 nM
  GI50: 3950 nM
  IC50: 3960 nM
SCaBER, Bladder
  EC50: 3120 nM
  GI50: 3100 nM
  IC50: 3120 nM
SH-4, Skin (Melanoma)
  EC50: 1950 nM
